Measurements as given in the NIST ThermoML archive (doi:10.1016/j.jct.2012.08.030).

Experiments:
[1] = refractive index (Na D-line) (dimensionless); xn = mol fraction of the nth substance listed; conditions: 101.3 kPa, Liquid, Standard Abbe refractometry
[2] = xn = mol fraction of the nth substance listed; conditions: 101.3 kPa, Liquid; for speed of sound: Sing-around technique in a fixed-path interferometer; for mass density: Vibrating tube method

CCCCn1cc[n+](C)c1.COS(=O)(=O)[O-] [1-butyl-3-methylimidazolium methyl sulfate] + CO
Conditions	mass density, [2] [kg/m3]	refractive index, [1]	speed of sound, [2] [m/s]
298.15 K, x1 = 0.0422	871.193	1.35708	1191.8
298.15 K, x1 = 0.094	942.4	1.38271	1273.9
298.15 K, x1 = 0.1857	1027.84	1.41321	1384.7
298.15 K, x1 = 0.2858	1084.79	1.43348	1464
298.15 K, x1 = 0.3729	1118.3	1.44537	1512.2
298.15 K, x1 = 0.4772	1146.38	1.45531	1553.5
298.15 K, x1 = 0.5769	1166.12	1.46226	1583.1
298.15 K, x1 = 0.6775	1181.29	1.46761	1606.1
298.15 K, x1 = 0.7947	1194.94	1.47248	1627
298.15 K, x1 = 0.8923	1204.14	1.47576	1641.7
298.15 K, x1 = 0.9526	1208.98	1.47744	1649.4
298.15 K, x1 = 1	1212.06	1.47824	1654.6
303.15 K, x1 = 0.0422	866.765	1.35523	1176.5
303.15 K, x1 = 0.094	938.21	1.38094	1259.6
303.15 K, x1 = 0.1857	1023.91	1.41156	1371.1
303.15 K, x1 = 0.2858	1081.04	1.43193	1450.9
303.15 K, x1 = 0.3729	1114.64	1.44388	1499.3
303.15 K, x1 = 0.4772	1142.82	1.45387	1540.9
303.15 K, x1 = 0.5769	1162.61	1.46087	1570.7
303.15 K, x1 = 0.6775	1177.83	1.46624	1593.8
303.15 K, x1 = 0.7947	1191.5	1.47111	1614.7
303.15 K, x1 = 0.8923	1200.73	1.4744	1629.5
303.15 K, x1 = 0.9526	1205.6	1.47608	1637.2
303.15 K, x1 = 1	1208.7	1.47704	1642.2
308.15 K, x1 = 0.0422	862.332	1.35331	1161.3
308.15 K, x1 = 0.094	934.013	1.37913	1245.1
308.15 K, x1 = 0.1857	1019.99	1.4099	1357.5
308.15 K, x1 = 0.2858	1077.29	1.43036	1437.7
308.15 K, x1 = 0.3729	1111	1.44239	1486.4
308.15 K, x1 = 0.4772	1139.26	1.45242	1528.2
308.15 K, x1 = 0.5769	1159.12	1.45945	1558.2
308.15 K, x1 = 0.6775	1174.38	1.46485	1581.4
308.15 K, x1 = 0.7947	1188.07	1.46972	1602.4
308.15 K, x1 = 0.8923	1197.33	1.47303	1617.2
308.15 K, x1 = 0.9526	1202.23	1.47475	1624.9
308.15 K, x1 = 1	1205.35	1.47577	1630
313.15 K, x1 = 0.0422	857.888	1.35141	1146.2
313.15 K, x1 = 0.094	929.815	1.37735	1230.8
313.15 K, x1 = 0.1857	1016.06	1.40827	1343.9
313.15 K, x1 = 0.2858	1073.54	1.4288	1424.6
313.15 K, x1 = 0.3729	1107.37	1.4409	1473.6
313.15 K, x1 = 0.4772	1135.72	1.45097	1515.7
313.15 K, x1 = 0.5769	1155.64	1.45804	1545.9
313.15 K, x1 = 0.6775	1170.94	1.46348	1569.2
313.15 K, x1 = 0.7947	1184.65	1.46836	1590.3
313.15 K, x1 = 0.8923	1193.93	1.47168	1605.1
313.15 K, x1 = 0.9526	1198.87	1.47338	1612.9
313.15 K, x1 = 1	1202.01	1.47443	1617.9

CCCCn1cc[n+](C)c1.COS(=O)(=O)[O-] [1-butyl-3-methylimidazolium methyl sulfate] + CC(C)O
Conditions	mass density, [2] [kg/m3]	refractive index, [1]	speed of sound, [2] [m/s]
298.15 K, x1 = 0.0482	835.17	1.38886	1181.2
298.15 K, x1 = 0.0965	880.673	1.40004	1219.7
298.15 K, x1 = 0.1938	955.343	1.41819	1292.5
298.15 K, x1 = 0.2928	1013.5	1.43226	1358.2
298.15 K, x1 = 0.3902	1059.05	1.44304	1415
298.15 K, x1 = 0.496	1099.29	1.45252	1470.4
298.15 K, x1 = 0.5903	1128.61	1.45942	1514.7
298.15 K, x1 = 0.6902	1154.5	1.46547	1556.5
298.15 K, x1 = 0.7978	1177.96	1.47086	1596.4
298.15 K, x1 = 0.9531	1205.6	1.47709	1642.9
298.15 K, x1 = 1	1212.06	1.47824	1654.6
303.15 K, x1 = 0.0482	831.096	1.38696	1165.3
303.15 K, x1 = 0.0965	876.702	1.39831	1204.4
303.15 K, x1 = 0.1938	951.52	1.41666	1278.2
303.15 K, x1 = 0.2928	1009.8	1.43067	1344.3
303.15 K, x1 = 0.3902	1055.42	1.44158	1401.7
303.15 K, x1 = 0.496	1095.74	1.45108	1457.6
303.15 K, x1 = 0.5903	1125.13	1.458	1502.1
303.15 K, x1 = 0.6902	1151.05	1.46409	1544.2
303.15 K, x1 = 0.7978	1174.52	1.46948	1584.2
303.15 K, x1 = 0.9531	1202.22	1.47576	1630.7
303.15 K, x1 = 1	1208.7	1.47704	1642.2
308.15 K, x1 = 0.0482	826.964	1.38495	1148.9
308.15 K, x1 = 0.0965	872.696	1.39643	1188.9
308.15 K, x1 = 0.1938	947.68	1.41492	1263.7
308.15 K, x1 = 0.2928	1006.09	1.42902	1330.4
308.15 K, x1 = 0.3902	1051.78	1.44001	1388.3
308.15 K, x1 = 0.496	1092.2	1.44958	1444.6
308.15 K, x1 = 0.5903	1121.71	1.45655	1489.5
308.15 K, x1 = 0.6902	1147.61	1.46268	1531.7
308.15 K, x1 = 0.7978	1171.15	1.4681	1571.9
308.15 K, x1 = 0.9531	1198.85	1.47442	1618.5
308.15 K, x1 = 1	1205.35	1.47577	1630
313.15 K, x1 = 0.0482	822.774	1.38288	1132.5
313.15 K, x1 = 0.0965	868.646	1.3945	1173.3
313.15 K, x1 = 0.1938	943.827	1.41317	1249.1
313.15 K, x1 = 0.2928	1002.39	1.4274	1316.5
313.15 K, x1 = 0.3902	1048.13	1.43845	1375
313.15 K, x1 = 0.496	1088.68	1.44808	1431.8
313.15 K, x1 = 0.5903	1118.31	1.4551	1476.9
313.15 K, x1 = 0.6902	1144.23	1.46125	1519.4
313.15 K, x1 = 0.7978	1167.77	1.46674	1559.7
313.15 K, x1 = 0.9531	1195.49	1.47306	1606.4
313.15 K, x1 = 1	1202.01	1.47443	1617.9
